Assay results published in patent US20230286958A1, “PLASMA KALLIKREIN INHIBITORS” (Merck Sharp & Dohme LLC, priority 2020, published 2023).

Assays:
[1] = molecular target: human Factor XIa (Homo sapiens (Human), UniProt P03951); test: Factor XIa Assay (fluorogenic substrate GPR-AFC); format: biochemical; conditions: Factor XIa (FXIa)
Method: (§1) The effectiveness of a compound of the present invention as an inhibitor of Coagulation Factor XIa can be determined using a relevant purified serine protease, and an appropriate synthetic substrate. The rate of hydrolysis of the chromogenic or fluorogenic substrate by the relevant serine protease was measured both in the absence and presence of compounds of the present invention. Assays were conducted at room temperature or at 37° C. […] A decrease in the rate of fluorescence change in the presence of inhibitor is indicative of enzyme inhibition. Such methods are known to one skilled in the art. The results of this assay are expressed as the half-maximal inhibitory concentrations (IC50), or the inhibitory constant, Ki.
Compounds were pre-incubated for 30 minutes at 25° C. with human (0.04 nM) Factor XIa in 50 mM HEPES buffer with 150 mM sodium chloride, 5 mM calcium chloride, 0.1% PEG 8000, pH 7.4. […] The % inhibition for each data point was calculated from the data and analyzed using the log (inhibitor) vs. response four parameters equation to determine the half-maximal inhibitory concentrations (IC50). The IC50 were converted to equilibrium inhibitory constants (Ki) using the Cheng-Prusoff equation.

[2] = molecular target: Human plasma kallikrein (Homo sapiens (Human), UniProt P03952); test: Kallikrein Assay (fluorogenic substrate Acetyl-K-P-R-AFC); format: biochemical; conditions: Plasma Kallikrein (PKal)
Method: as §1, with “Kallikrein” for “Coagulation Factor XIa”
Kallikrein determinations were made in 50 mM HEPES buffer at pH 7.4 containing 150 mM NaCl, 5 mM CaC12, and 0.1% PEG 8000 (polyethylene glycol; Fisher Scientific). Determinations were made using purified Human plasma kallikrein at a final concentration of 0.5 nM (Enzyme Research Laboratories) and the synthetic substrate, Acetyl-K-P-R-AFC (Sigma # C6608) at a concentration of […].
Times required to achieve equilibration between enzyme and inhibitor were determined in control experiments. […] IC50 was determined by inflection point from a four parameter logistic curve fit. Ki was calculated using the Cheng Prusoff equation, Ki = IC50/(1+([S]/Km)).

Sequence of Human plasma kallikrein (P03952 391-638): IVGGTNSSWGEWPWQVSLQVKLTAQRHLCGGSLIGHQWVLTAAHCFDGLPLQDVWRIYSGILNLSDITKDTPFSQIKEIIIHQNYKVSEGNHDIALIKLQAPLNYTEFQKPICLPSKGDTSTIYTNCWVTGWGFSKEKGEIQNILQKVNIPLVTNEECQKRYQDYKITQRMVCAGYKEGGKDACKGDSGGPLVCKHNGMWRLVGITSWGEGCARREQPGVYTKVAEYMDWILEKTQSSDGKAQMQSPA
Sequence of Human plasma kallikrein (P03952 20-390 partner): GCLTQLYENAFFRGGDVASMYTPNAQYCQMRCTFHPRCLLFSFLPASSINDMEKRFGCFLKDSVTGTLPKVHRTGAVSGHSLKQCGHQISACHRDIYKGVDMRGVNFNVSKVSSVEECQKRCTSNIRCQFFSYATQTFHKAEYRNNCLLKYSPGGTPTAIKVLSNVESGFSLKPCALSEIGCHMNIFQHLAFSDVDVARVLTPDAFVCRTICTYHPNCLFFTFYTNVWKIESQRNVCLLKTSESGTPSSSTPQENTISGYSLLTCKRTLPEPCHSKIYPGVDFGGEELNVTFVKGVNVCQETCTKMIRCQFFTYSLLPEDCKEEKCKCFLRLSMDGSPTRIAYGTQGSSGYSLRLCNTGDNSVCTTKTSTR
Sequence of human Factor XIa (P03951 388-625 limits assumed): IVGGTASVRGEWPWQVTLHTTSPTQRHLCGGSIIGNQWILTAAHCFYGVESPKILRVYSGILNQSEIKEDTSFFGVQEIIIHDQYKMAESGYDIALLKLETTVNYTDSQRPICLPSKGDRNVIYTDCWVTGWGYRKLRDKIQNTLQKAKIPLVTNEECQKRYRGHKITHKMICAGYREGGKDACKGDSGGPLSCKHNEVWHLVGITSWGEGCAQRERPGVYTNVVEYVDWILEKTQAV
Sequence of human Factor XIa (P03951 19-387 partner limits assumed): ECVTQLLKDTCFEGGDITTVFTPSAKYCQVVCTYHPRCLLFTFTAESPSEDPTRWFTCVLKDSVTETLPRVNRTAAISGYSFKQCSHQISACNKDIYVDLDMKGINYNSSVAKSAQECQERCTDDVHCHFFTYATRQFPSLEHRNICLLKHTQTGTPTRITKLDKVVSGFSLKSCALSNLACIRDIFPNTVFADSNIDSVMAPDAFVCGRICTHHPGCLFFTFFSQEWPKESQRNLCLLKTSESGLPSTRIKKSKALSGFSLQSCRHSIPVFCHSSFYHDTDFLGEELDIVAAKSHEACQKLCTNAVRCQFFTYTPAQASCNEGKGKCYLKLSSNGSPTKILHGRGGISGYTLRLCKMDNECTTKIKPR

Compound | IC50 [1] | IC50 [2]
6-(3-Chloro-2-fluoro-6-(methylsulfonyl)phenyl)-N-(1-((S or R)-1-(4-methyl-2-((1R,SS)-2-oxo-3-azabicyclo[3.1.0]hexan-3-yl)pyrimidin-5-yl)ethyl)- 1H-pyrazol-4-yl)pyrazine-2-carboxamide [Example 86] | > 10000 nM | 36 nM
CC(c1cnc(N2Cc3cccnc3C2=O)nc1)n1cc(NC(=O)c2cncc(-c3c(C(F)F)ccc(Cl)c3F)n2)cn1 (racemic) [Example 26, (S and R)-6-(3-Chloro-6-(difluoromethyl)-2-fluorophenyl)-N-(1-(1-(2-(7-oxo-5,7-dihydro-6H-pyrrolo[3,4-b]pyridin-6-yl)pyrimidin-5-yl)ethyl)-1H-pyrazol-4-yl)pyrazine-2-carboxamide] | > 10000 nM | 6.2 nM
CC(c1cnc(N2Cc3ncccc3C2=O)nc1)n1cc(NC(=O)c2cncc(-c3c(C(F)F)ccc(Cl)c3F)n2)cn1 (racemic) [Example 27, (S and R)-6-(3-Chloro-6-(difluoromethyl)-2-fluorophenyl)-N(1-(1-(2-(5-oxo-5,7-dihydro-6H-pyrrolo[3,4-b]pyridin-6-yl)pyrimidin-5-yl)ethyl)-1H-pyrazol-4-yl)pyrazine-2-carboxamide] | 5650 nM | 14.8 nM
Cc1ncc(-c2c(C(F)F)ccc(Cl)c2F)nc1C(=O)Nc1cnn(C(C)c2cnc(N3C[C@H]4C[C@H]4C3=O)c(NC(=O)OC(C)(C)C)c2)c1 (mixture of isomers) [Example 96, tert-Butyl (5-((S and R)-1-(4-(6-(3-chloro-6-(difluoromethyl)-2-fluorophenyl)-3-methylpyrazine-2-carboxamido)-1H-pyrazol-1-yl)ethyl)-2-((1R,5S)-2-oxo-3-azabicyclo[3.1.0]hexan-3-yl)pyridin-3-yl)carbamate] | 3950 nM | 10.8 nM
Cc1nc(C(C)n2cc(NC(=O)c3nc(-c4c(C(F)F)ccc(Cl)c4F)cnc3COC(C)(C)C)cn2)cnc1N1C[C@H]2C[C@H]2C1=O (mixture of isomers) [Example 196, 3-(tert-Butoxymethyl)-6-(3-chloro-6-(difluoromethyl)-2-fluorophenyl)-N-(1-((S and R)-1-(6-methyl-5-((1R,5S)-2-oxo-3-azabicyclo[3.1.0]hexan-3-yl)pyrazin-2-yl)ethyl)-1H-pyrazol-4-yl)pyrazine-2-carboxamide] | 2090 nM | 0.9 nM
CCc1ncc(-c2c(C(F)F)ccc(Cl)c2F)nc1C(=O)Nc1cnn(C(C)c2cnc(N3C[C@H]4C[C@H]4C3=O)c(C)c2)c1 (mixture of isomers) [Example 214, 6-(3-Chloro-6-(difluoromethyl)-2-fluorophenyl)-3-ethyl-N-(1-((S and R)-1-(5-methyl-6-((1R,5S)-2-oxo-3-azabicyclo[3.1.0]hexan-3-yl)pyridin-3-yl)ethyl)-1H-pyrazol-4-yl)pyrazine-2-carboxamide] | 944 nM | 1.2 nM
Cc1cc(C(C)n2cc(NC(=O)c3nc(-c4c(OC(F)F)ccc(Cl)c4F)cnc3COC(C)(C)C)cn2)cnc1N1C[C@H]2C[C@H]2C1=O (mixture of isomers) [Example 228, 3-(tert-Butoxymethyl)-6-(3-chloro-6-(difluoromethoxy)-2-fluorophenyl)-N-(1-((R and S)-1-(5-methyl-6-((1R,5S)-2-oxo-3-azabicyclo[3.1.0]hexan-3-yl)pyridin-3-yl)ethyl)-1H-pyrazol-4-yl)pyrazine-2-carboxamide] | 602 nM | 1.6 nM

Results, then the compound that gave them:

IC50 [1] | IC50 [2] | Compound
> 10000 nM | 47.4 nM | CC(c1cnc(N2CCN(C)C2=O)nc1)n1cc(NC(=O)c2cncc(-c3c(C(F)F)ccc(Cl)c3F)n2)cn1 (racemic) [Example 28, (S and R)-6-(3-Chloro-6-(difluoromethyl)-2-fluorophenyl)-N-(1-(1-(2-(3-methyl-2-oxoimidazolidin-1-yl)pyrimidin-5-yl)ethyl)-1H-pyrazol-4-yl)pyrazine-2-carboxamide]
> 10000 nM | 10 nM | CC(c1ccc(N2C[C@H]3C[C@H]3C2=O)cc1)n1cc(NC(=O)c2cncc(-c3c(C(F)F)ccc(Cl)c3F)n2)cn1 (mixture of isomers) [Example 69, 6-(3-Chloro-6-(difluoromethyl)-2-fluorophenyl)-N-(1-((S and R)-1-(4-((1R,5S)-2-oxo-3-azabicyclo[3.1.0]hexan-3-yl)phenyl)ethyl)-1H-pyrazol-4-yl)pyrazine-2-carboxamide]
> 10000 nM | 1 nM | Cc1nc(C(C)n2cc(NC(=O)c3cncc(-c4c(C(F)F)ccc(Cl)c4F)n3)cn2)ncc1N1C[C@H]2C[C@H]2C1=O (single isomer, unassigned) [Example 3, 6-(3-Chloro-6-(difluoromethyl)-2-fluorophenyl)-N-(1-((S or R)-1-(4-methyl-5-((1R,5S)-2-oxo-3-azabicyclo[3.1.0]hexan-3-yl)pyrimidin-2-yl)ethyl)-1H-pyrazol-4-yl)pyrazine-2-carboxamide]
> 10000 nM | 16.8 nM | Cc1nc(C(C)n2cc(NC(=O)c3cncc(-c4c(C(F)F)ccc(Cl)c4F)n3)cn2)ncc1N1C[C@H]2C[C@H]2C1=O (single isomer, unassigned) [Example 4, 6-(3-Chloro-6-(difluoromethyl)-2-fluorophenyl)-N-(1-((R or S)-1-(4-methyl-5-((1R,5S)-2-oxo-3-azabicyclo[3.1.0]hexan-3-yl)pyrimidin-2-yl)ethyl)-1H-pyrazol-4-yl)pyrazine-2-carboxamide]
> 10000 nM | 17.2 nM | CC(c1ncc(N2C[C@H]3C[C@H]3C2=O)cn1)n1cc(NC(=O)c2cncc(-c3c(C(F)F)ccc(Cl)c3F)n2)cn1 (single isomer, unassigned) [Example 5, 6-(3-Chloro-6-(difluoromethyl)-2-fluorophenyl)-N-(1-((S or R)-1-(5-((1R,5S)-2-oxo-3-azabicyclo[3.1.0]hexan-3-yl)pyrimidin-2-yl)ethyl)-1H-pyrazol-4-yl)pyrazine-2-carboxamide]
> 10000 nM | 0.9 nM | Cc1ncc(-c2c(C(F)F)ccc(Cl)c2F)nc1C(=O)Nc1cnn(C(C)c2ncc(N3C[C@H]4C[C@H]4C3=O)cn2)c1 (single isomer, unassigned) [Example 6, 6-(3-Chloro-6-(difluoromethyl)-2-fluorophenyl)-3-methyl-N-(1-((R or S)-1-(5-((1R,5S)-2-oxo-3-azabicyclo[3.1.0]hexan-3-yl)pyrimidin-2-yl)ethyl)-1H-pyrazol-4-yl)pyrazine-2-carboxamide]
– | 0.2 nM | Cc1cc(C(C)n2cc(NC(=O)c3nc(-c4c(C(F)F)ccc(Cl)c4F)cnc3CO)cn2)cnc1N1C[C@H]2C[C@H]2C1=O (single isomer, unassigned) [Example 199, 6-(3-Chloro-6-(difluoromethyl)-2-fluorophenyl)-3-(hydroxymethyl)-N-(1-((S or R)-1-(5-methyl-6-((1R,5S)-2-oxo-3-azabicyclo[3.1.0]hexan-3-yl)pyridin-3-yl)ethyl)-1H-pyrazol-4-yl)pyrazine-2-carboxamide]
– | 0.2 nM | Cc1cc(C(C)n2cc(NC(=O)c3nc(-c4c(C(F)F)ccc(Cl)c4F)cnc3CO)cn2)cnc1N1C[C@H]2C[C@H]2C1=O (single isomer, unassigned) [Example 200, 6-(3-Chloro-6-(difluoromethyl)-2-fluorophenyl)-3-(hydroxymethyl)-N-(1-((R or S)-1-(5-methyl-6-((1R,5S)-2-oxo-3-azabicyclo[3.1.0]hexan-3-yl)pyridin-3-yl)ethyl)-1H-pyrazol-4-yl)pyrazine-2-carboxamide]
